From ChEMBL document CHEMBL4152322, “Dihydropyrimidinone/1,2,3-triazole hybrid molecules: Synthesis and anti-varicella-zoster virus (VZV) evaluation” (Eur J Med Chem, 2018)
Active and inactive are the calls of the source. No cut-off for these calls is given here.

Experiments:
Human alphaherpesvirus 3 [1] = experiment: Antiviral activity against thymidine kinase expressing Varicella-Zoster virus Oka infected in human HEL cells assessed as reduction in plaque formation after 5 days; type: functional, organism-based; conditions: Human alphaherpesvirus 3, strain Oka vaccine, 120 h
Human alphaherpesvirus 3 [2] = experiment: Antiviral activity against thymidine kinase deficient Varicella-Zoster virus 07-1 infected in human HEL cells assessed as reduction in plaque formation after 5 days; type: functional, organism-based; conditions: Human alphaherpesvirus 3, 07-1, HEL, 120 h
[3] = Cytostatic activity against human HEL cells after 3 days by coulter counter method; type: ADME, cell-based
Human betaherpesvirus 5 [4] = experiment: Antiviral activity against HCMV AD169 infected in human HEL cells assessed as reduction in virus-induced cytopathic effect after 7 days; type: functional, organism-based
Human betaherpesvirus 5 [5] = experiment: Antiviral activity against HCMV Davis infected in human HEL cells assessed as reduction in virus-induced cytopathic effect after 7 days; type: functional, organism-based

CC(=O)C1=C(C)N(Cc2cn(Cc3ccc([N+](=O)[O-])cc3)nn2)C(=O)N(Cc2cn(Cc3ccc([N+](=O)[O-])cc3)nn2)C1c1ccccc1 (stereo unspecified)
EC50 (Human alphaherpesvirus 3 [1]): 3.62 µM | EC50 (Human alphaherpesvirus 3 [2]): 7.85 µM | CC50 at 72 h [3]: > 100 µM | Activity (Human betaherpesvirus 5 [4]): inactive | Activity (Human betaherpesvirus 5 [5]): inactive

Nc1nc2c(ncn2COCCO)c(=O)[nH]1 [ACYCLOVIR]
EC50 (Human alphaherpesvirus 3 [1]): 2.35 µM | EC50 (Human alphaherpesvirus 3 [2]): 133 µM | CC50 at 72 h [3]: > 440 µM

CC(=O)C1=C(C)N(Cc2cn(Cc3ccccc3)nn2)C(=O)N(Cc2cn(Cc3ccccc3)nn2)C1c1ccccc1 (stereo unspecified)
EC50 (Human alphaherpesvirus 3 [1]): 8.38 µM | EC50 (Human alphaherpesvirus 3 [2]): 6.08 µM | CC50 at 72 h [3]: 7.02 µM | Activity (Human betaherpesvirus 5 [4]): inactive | Activity (Human betaherpesvirus 5 [5]): inactive

COc1ccc(OC)c(C2NC(=O)N(Cc3cn(Cc4ccccc4)nn3)C(C)=C2C(C)=O)c1 (stereo unspecified)
EC50 (Human alphaherpesvirus 3 [1]): 48.9 µM | EC50 (Human alphaherpesvirus 3 [2]): 50.2 µM | Activity (Human betaherpesvirus 5 [4]): inactive | Activity (Human betaherpesvirus 5 [5]): inactive

COc1ccc(OC)c(C2NC(=O)N(Cc3cn(Cc4ccc([N+](=O)[O-])cc4)nn3)C(C)=C2C(C)=O)c1 (stereo unspecified)
EC50 (Human alphaherpesvirus 3 [1]): 44.7 µM | EC50 (Human alphaherpesvirus 3 [2]): 48.1 µM | Activity (Human betaherpesvirus 5 [4]): inactive | Activity (Human betaherpesvirus 5 [5]): inactive

CC(=O)C1=C(C)N(Cc2cn(Cc3ccc([N+](=O)[O-])cc3)nn2)C(=O)NC1c1ccccc1 (stereo unspecified)
EC50 (Human alphaherpesvirus 3 [1]): 48.9 µM | EC50 (Human alphaherpesvirus 3 [2]): 42.6 µM | Activity (Human betaherpesvirus 5 [4]): inactive | Activity (Human betaherpesvirus 5 [5]): inactive

CC(=O)C1=C(C)N(Cc2cn(Cc3ccccc3)nn2)C(=O)N(Cc2cn(Cc3ccccc3)nn2)C1c1ccc(N(C)C)cc1 (stereo unspecified)
EC50 (Human alphaherpesvirus 3 [1]): 23.2 µM | EC50 (Human alphaherpesvirus 3 [2]): 17 µM | Activity (Human betaherpesvirus 5 [4]): inactive | Activity (Human betaherpesvirus 5 [5]): inactive

CC(=O)C1=C(C)N(Cc2cn(Cc3ccccc3)nn2)C(=O)NC1c1ccc(OCc2cn(Cc3ccccc3)nn2)cc1 (stereo unspecified)
EC50 (Human alphaherpesvirus 3 [1]): 11.3 µM | EC50 (Human alphaherpesvirus 3 [2]): 10.8 µM | CC50 at 72 h [3]: > 100 µM | Activity (Human betaherpesvirus 5 [4]): inactive | Activity (Human betaherpesvirus 5 [5]): inactive

COc1ccc(OC)c(C2C(C(C)=O)=C(C)N(Cc3cn(Cc4ccccc4)nn3)C(=O)N2Cc2cn(Cc3ccccc3)nn2)c1 (stereo unspecified)
EC50 (Human alphaherpesvirus 3 [1]): 9.85 µM | EC50 (Human alphaherpesvirus 3 [2]): 8.87 µM | CC50 at 72 h [3]: > 100 µM | Activity (Human betaherpesvirus 5 [4]): inactive | Activity (Human betaherpesvirus 5 [5]): inactive

O=c1[nH]c(=O)n([C@H]2C[C@H](O)[C@@H](CO)O2)cc1/C=C/Br [BRIVUDINE]
EC50 (Human alphaherpesvirus 3 [1]): 0.025 µM | EC50 (Human alphaherpesvirus 3 [2]): 104 µM | CC50 at 72 h [3]: > 300 µM

CC(=O)C1=C(C)N(Cc2cn(Cc3ccc([N+](=O)[O-])cc3)nn2)C(=O)N(Cc2cn(Cc3ccc([N+](=O)[O-])cc3)nn2)C1c1ccc(OCc2cn(Cc3ccc([N+](=O)[O-])cc3)nn2)cc1 (stereo unspecified)
EC50 (Human alphaherpesvirus 3 [1]): 69.9 µM | EC50 (Human alphaherpesvirus 3 [2]): > 20 µM | Activity (Human betaherpesvirus 5 [4]): inactive | Activity (Human betaherpesvirus 5 [5]): inactive
